Reference: patent US10071967B2, “N-cycloalkyl-N-{[2-(1-substitutedcycloalkyl)phenyl]methylene}-(thio)carboxamide derivatives” (BAYER CROPSCIENCE AKTIENGESELLSCHAFT, priority 2013, dated 2018)
One block for each molecule: values may come before it.

Columns and labels:
[1] = tested on: Phakopsora pachyrhizi; assay: In vivo preventive test on Phakopsora pachyrhizi (soybean rust); details: for protection: dose of ppm of active ingredient (number not given), comparison with WO-2010/130767, text
Procedure: Example C: In Vivo Preventive Test on Phakopsora pachyrhizi (Soybean Rust)
Solvent: 24.5 parts by weight of acetone • 24.5 parts by weight of N,N-dimethylacetamide
Emulsifier: 1 part by weight of alkylaryl polyglycol ether
To produce a suitable preparation of active compound, 1 part by weight of active compound is mixed with the stated amounts of solvent and emulsifier, and the concentrate is diluted with water to the desired concentration.
To test for preventive activity, young plants are sprayed with the preparation of active compound at the stated rate of application. After the spray coating has dried on, the plants are inoculated with an aqueous spore suspension of the causal agent of soybean rust (Phakopsora pachyrhizi) and stay for 24 h without light in an incubation cabinet at approximately 24° C. and a relative atmospheric humidity of 95%.
The plants remain in the incubation cabinet at approximately 24° C. and a relative atmospheric humidity of approximately 80% and a day/night interval of 12 h. The test is evaluated 7 days after the inoculation. 0% means an efficacy which corresponds to that of the untreated control, while an efficacy of 100% means that no disease is observed.

[2] = tested on: Puccinia recondita; assay: In vivo preventive test on Puccinia recondita (brown rust on wheat); details: for Efficacy: Table A1, dose 100 ppm, examples from WO-2012/052490 formulated in DMF with 2% of alkylarylpolyglycolether; for protection: dose of 100 ppm of active ingredient, comparison with WO-2012/052490
Procedure: Example A: In Vivo Preventive Test on Puccinia recondita (Brown Rust on Wheat) […]
Emulsifier: 1 μL of Tween® 80 per mg of active ingredient
(§1) The active ingredients are made soluble and homogenized in a mixture of Dimethyl sulfoxide/Acetone/Tween® 80 and then diluted in water to the desired concentration.
The young plants of wheat are treated by spraying the active ingredient prepared as described above. Control plants are treated only with an aqueous solution of Acetone/Dimethyl sulfoxide/Tween® 80. After 24 hours, the plants are contaminated by spraying the leaves with an aqueous suspension of Puccinia recondita spores. The contaminated wheat plants are incubated for 24 hours at 20° C. and at 100% relative humidity and then for 10 days at 20° C. and at 70-80% relative humidity.
(§2) The test is evaluated 11 days after the inoculation. 0% means an efficacy which corresponds to that of the control plants while an efficacy of 100% means that no disease is observed.

[3] = tested on: Uromyces appendiculatus; assay: In vivo preventive test on Uromyces appendiculatus (bean rust); details: for Efficacy: Table B1, dose 10 ppm
Procedure: Example B: In Vivo Preventive Test on Uromyces appendiculatus (Bean Rust)
Solvent: 5% by volume of Dimethyl sulfoxide • 10% by volume of Acetone
Emulsifier: […] of Tween® 80 per mg of active ingredient
as §1
The young plants of bean are treated by spraying the active ingredient prepared as described above.
Control plants are treated only with an aqueous solution of Acetone/Dimethyl sulfoxide/Tween® 80.
After 24 hours, the plants are contaminated by spraying the leaves with an aqueous suspension of Uromyces appendiculatus spores. The contaminated bean plants are incubated for 24 hours at 20° C. and at 100% relative humidity and then for 10 days at 20° C. and at 70-80% relative humidity.
as §2

[4] = log P by HPLC on a reversed-phase column (C 18), EEC Directive 79/831 Annex V.A8; assay type: physicochemical; details: for logP: 0.1% aqueous formic acid and acetonitrile
Procedure: In table 1, the log P values were determined in accordance with EEC Directive 79/831 Annex V.A8 by HPLC (High Performance Liquid Chromatography) on a reversed-phase column (C 18), using the method described below: Temperature: 40° C.; Mobile phases: 0.1% aqueous formic acid and acetonitrile; linear gradient from 10% acetonitrile to 90% acetonitrile. Calibration was carried out using unbranched alkan-2-ones (comprising 3 to 16 carbon atoms) with known log P values (determination of the log P values by the retention times using linear interpolation between two successive alkanones). lambda-max-values were determined using UV-spectra from 200 nm to 400 nm and the peak values of the chromatographic signals.

[5] = HPLC reversed-phase C 18, 40° C., gradient 10% to 90% acetonitrile
[6] = HPLC, reversed-phase column (C 18), 40° C., linear gradient 10% to 90% acetonitrile
[7] = Table 2, compounds of formula (I), HPLC C 18, 40° C.

Compound: Cn1nc(C(F)F)c(C(=O)N(Cc2cc(Cl)ccc2C2CC2)C2CC2)c1F [41 from WO-2010/130767, N-(5-chloro-2-cyclopropylbenzyl)-N-cyclopropyl-3-(difluoromethyl)-5-fluoro-1-methyl-1H-pyrazole-4-carboxamide, reference compound]
- protection [1]: no protection

Compound: Cn1nc(C(F)F)c(C(=O)N(Cc2ccccc2C2CC2)C2CC2)c1F [47 from WO-2010/130767, N-cyclopropyl-N-(2-cyclopropylbenzyl)-3-(difluoromethyl)-5-fluoro-1-methyl-1H-pyrazole-4-carboxamide, reference compound]
- Efficacy ([1]; Table C1, dose 10 ppm): 0%

Compound: Cn1nc(C(F)F)c(C(=O)NCc2ccccc2C2CC2)c1F [65 from WO-2012/052490, N-(2-cyclopropylbenzyl)-3-(difluoromethyl)-5-fluoro-1-methyl-1H-pyrazole-4-carboxamide]
- Efficacy [2]: 0%
- protection [2]: no protection

Compound: Cn1nc(C(F)F)c(C(=O)NCc2ccccc2C2CC2)c1Cl [66 from WO-2012/052490, 5-chloro-N-(2-cyclo-propylbenzyl)-3-(difluoromethyl)-1-methyl-1H-pyrazole-4-carboxamide]
- Efficacy [2]: 0%
- protection [2]: no protection

Compound: Cn1nc(C(F)F)c(C(=O)N(Cc2cc(F)ccc2C2CC2)C2CC2)c1F [123 from WO-2010/130767, N-cyclopropyl-N-(2-cyclopropyl-5-fluorobenzyl)-3-(difluoromethyl)-5-fluoro-1-methyl-1H-pyrazole-4-carboxamide, reference compound]
- Efficacy ([1]; Table C1, dose 10 ppm): 0/23

Compound: Cc1nn(C)c(F)c1C(=O)N(Cc1ccccc1C1CCCCC1)C1CC1 [399 from WO-2007/087906, N-(2-cyclohexylbenzyl)-N-cyclopropyl-5-fluoro-1,3-dimethyl-1H-pyrazole-4-carboxamide, reference compound]
- Efficacy [3]: 0%
- protection ([3]; dose of ppm of active ingredient (number not given), comparison with WO-2007/087906, text): no protection

Compound: Cn1cc(C(=O)N(Cc2cc(Cl)ccc2C2(C)CC2)C2CC2)c(C(F)F)n1 [I.029, N-[5-chloro-2-(1-methylcyclopropyl)benzyl]-N-cyclopropyl-3-(difluoromethyl)-1-methyl-1H-pyrazole-4-carboxamide]
- Efficacy [3]: 98%

Compound: Cc1ccc(C2(C)CC2)c(CN(C(=O)c2cn(C)nc2C(F)F)C2CC2)c1 [I.033]
- logP [4, 6]: 3.74
- Efficacy [3]: 100%

Compound: Cc1ccc(C2(C)CC2)c(CN(C(=O)c2c(C)nn(C)c2F)C2CC2)c1 [I.040]
- Efficacy ([1]; Table C1, dose 10 ppm): 99%

Compound: CCC1(c2ccccc2CN(C(=O)c2cn(C)nc2C(F)F)C2CC2)CC1 [I.067]
- Efficacy [2]: 98%
- protection [2]: at least 98%

Compound: CCC1(c2ccc(Cl)cc2CN(C(=O)c2c(C)nn(C)c2F)C2CC2)CC1 [I.087]
- Efficacy ([1]; Table C2, dose 10 ppm): 79%
- protection [1]: at least 70%

Compound: CCCC1(c2ccc(C)cc2CN(C(=O)c2c(C)nn(C)c2F)C2CC2)CC1 [I.113]
- logP [4, 6]: 4.61
- Efficacy ([1]; Table C1, dose 10 ppm): 85%

Compound: Cn1cc(C(=O)N(Cc2cc(F)ccc2C2(C(F)F)CC2)C2CC2)c(C(F)F)n1 [I.137, N-cyclopropyl-3-(difluoromethyl)-N-{2-[1-(difluoromethyl)cyclopropyl]-5-fluorobenzyl}-1-methyl-1H-pyrazole-4-carboxamide]
- chromatographic logP ([4]; reversed-phase C18 HPLC column, given in the preparation examples): 3.09

Compound: Cn1cc(C(=O)N(Cc2cccc3c2C2(CC3)CC2)C2CC2)c(C(F)F)n1 [Ia.01]
- logP [4, 7]: 3.51

Compound: Cn1cc(C(=O)N(Cc2cccc3c2C2(CCC3)CC2)C2CC2)c(C(F)F)n1 [Ia.02]
- logP [4, 7]: 3.73

Compound: Cn1cc(C(=S)N(Cc2cccc3c2C2(CCC3)CC2)C2CC2)c(C(F)F)n1 [Ia.03]
- logP [4, 7]: 4.37

Further lines, results first:

- logP [4, 5]: 3.19
Compound: COCC1(c2ccc(C)cc2CN(C(=O)c2c(C)nn(C)c2Cl)C2CC2)CC1 [Example 1.158]

- logP [4, 5]: 5.43
Compound: Cc1cc(C(=O)N(Cc2cc(Cl)c(Cl)cc2C2(C)CC2)C2CC2)c(C)o1 [Example 1.159]

- logP [4, 5]: 3.81
Compound: Cc1nn(C)cc1C(=O)N(Cc1cc(Cl)c(Cl)cc1C1(C)CC1)C1CC1 [Example 1.160]

- logP [4, 5]: 4.61
Compound: Cc1nn(C)c(Cl)c1C(=O)N(Cc1cc(Cl)c(Cl)cc1C1(C)CC1)C1CC1 [Example 1.161]

- logP [4, 5]: 4.35
Compound: Cc1nn(C)c(F)c1C(=O)N(Cc1cc(Cl)c(Cl)cc1C1(C)CC1)C1CC1 [Example 1.162]

- logP [4, 5]: 4.28
Compound: Cn1cc(C(=O)N(Cc2cc(Cl)c(Cl)cc2C2(C)CC2)C2CC2)c(C(F)F)n1 [Example 1.163]
